# From patent US20060217340A1, “Methods and products for treating hypertension by modulation of TRPC3 channel activity” (University of Vermont and State Agricultural College, priority 2005, published 2006)
# Legend:
# [1] = system: pressurized rat cerebral arteries; test: Arterial wall Ca2+ concentration measurement (FURA-2) in isolated arteries; assay type: cell-based; conditions: for change in arterial wall Ca2+: Ca2+ returned to superfusate in the presence of UTP and nimodipine
# Procedure: Diameter and membrane potential recordings. […] In experiments using Ca^2+-free PSS, CaCl2 was omitted and 3 mM EGTA and 30 μM diltiazem added. In experiments with diacylglycerol induction, 300 μM of the diacylglycerol analogue OAG (1-oleyol-2-acetyl-sn-glycerol) was added. […] To verify endothelial cell removal the arteries were pressurized to 60 mmHg and allowed to develop myogenic tone prior to exposing the vessels to 1 μM UTP. […] Arterial diameter or membrane potential (Vm) of sense and anti-sense treated arteries was measured in the absence (control) or presence of UTP (concentration range: 0.1 to 10 μM). Membrane potential was measured by inserting a sharp glass electrode (≈100 MΩ resistance) containing 0.5M KCl into the vessel wall. […] Measurements were made using an electrometer (World Precision Instruments) and the data were recorded via computer using Axotape and Dataq software. Arterial diameter was measured using a video dimension analyzer (IonOptix Corporation; Milton, Mass.).
# Ca^2+ concentration measurement in isolated arteries. Mounted arteries were equilibrated in 1.6 m M PSS for 40 minutes at 37° C. (pH 7.4) prior to loading the vascular smooth muscle cells with the Ca^2+-sensitive fluorescent dye, FURA-2. To load the cells, the 1.6 mM PSS was gradually replaced over 5 minutes with HEPES solution (25° C., pH 7.4). A total of 40 μL of a premixed 100 μM FURA-2-acetoxymethyl ester solution (100 μg FURA-2, 200 μL Pluronic acid, 800 μL DMSO) was added directly to the HEPES to give a final concentration of 2 μM FURA-2 AM. Loading continued in the dark at 25° C. (pH 7.4) for 40 minutes. At the end of the loading period, the HEPES was replaced with 1.6 mM PSS (35° C., pH 7.4) and 30 minutes was allowed for complete de-esterification of the FURA-2 AM before [Ca^2+]c measurements were made. FURA-2 fluorescence was measured using a photomultiplier system (IonOptix Corporation; Milton, Mass., USA) in which background-corrected ratios of the 510-nm emission from arteries alternatively excited at 340 and 380 nm were obtained at a sampling rate of 5 Hz.
# [2] = system: smooth muscle cells isolated from sense- or antisense-treated cerebral arteries; test: Perforated patch clamp, UTP-activated whole-cell current; assay type: cell-based, rat; conditions: 30 μM UTP
# Procedure: Patch clamp electrophysiology. Single smooth muscle cells were enzymatically isolated from sense- or antisense-treated cerebral arteries using an isolation solution of the following composition (in mM): 60 NaCl, 58 sodium glutamate, 5.6 KCl, 2 MgCl2, 10 glucose, 0.1 CaCl2, 10 HEPES (pH 7.4) with 0.5 mg/ml papain, and 1 mg/ml dithioerythritol added. After 10 minutes, arterial segments were placed in a second isolation solution containing 0.1 mM CaCl2 and a collagenase type F and hyaluronidase mixture (1 mg/ml each). Trituration was performed with a polished wide-bore pipette and the cells were stored on ice and used the same day. Whole cell ionic currents were measured using the perforated patch method in the presence or absence of 30 μM UTP. Recording electrodes (4-7 MΩ resistance) were pulled from borosilicate glass. Plated cells were voltage clamped and held at −60 mV for 15 minutes prior to experimentation; whole cell currents were monitored while voltage was slowly ramped (−120 to +20 mV, 0.167 mV/ms); currents were not leak subtracted. The bath solution contained (in mM): 120 NaCl, 1.2 MgCl2, 1.8 CaCl2, 10 HEPES (pH 7.4), and 10 glucose. The pipette solution contained (in mM): 120 CsCl, 3 MgCl2, 0.1 EGTA, 10 HEPES (pH 7.2), 10 glucose and 200 μg/ml amphotericin B. A series resistance of approximately 40 MΩ was accepted for all perforated patch clamp experiments. Membrane currents were filtered at 1 kHz, digitized at 5 kHz and stored in a personal computer system for subsequent analysis. pClamp 8.1 and Clampfit 8.1 (Axon Instruments) were used to record and analyze membrane currents. Cell capacitance was measured with the cancellation circuitry of the voltage-clamp amplifier (Axopatch 200A amplifier, Axon Instruments, Sunnyvale, Calif., USA). All current recordings were performed at room temperature (22° C.).
Substance,increase in arterial wall Ca2+ ([1]; 300 μM OAG),change in arterial wall Ca2+ [1],SMCs in which the response to UTP was absent [2],SMCs in which the response to UTP was greatly suppressed [2],cells with UTP-activated whole cell current ([2]; voltage ramps −120 mV to 20 mV)
"5′-GAGAACCATGAACTGGAATA-3′ (SEQ ID: 9) and 5′-ACGACCAACACGACCAGACA-3′ (SEQ ID: 10) (phosphorothioate ends, further chemistry not given here) [TRPC3 antisense, antisense ODNs based on the rat TRPC3 gene; last five bases on the 5′ and 3′ end phosphorothioated]",6 ± 2 nM,50 ± 12 nM,3 of 5,2 of 5,–
"5′-TATTCCAGTTCATGGTTCTC-3′ (SEQ ID: 7) and 5′-TGTCTGGTCGTGTTGGTCGT-3′ (SEQ ID: 8) (phosphorothioate ends, further chemistry not given here) [TRPC3 sense, sense control ODNs based on the rat TRPC3 gene; end bases phosphorothioated]",–,100 ± 22 nM,–,–,8 of 9
